Experimental findings from patent publication US9771369B2, “Compounds and methods for kinase modulation, and indications therefor” (Plexxikon Inc., priority 2014, dated 2017) are described below.

A value given as a limit tells only on which side of the number the result lay.

The target of one assay is c-kit mutant D816V (Homo sapiens (Human), UniProt P10721, D816V/DEL694-753). The experiment in a line: c-Kit mutant D816V biochemical assay (AlphaScreen kinase activity). Put shortly: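 AlphaScreen with streptavidin donor and PY30 acceptor beads read phosphotyrosine on biotin-(E4Y)10 substrate (30 nM). Enzyme: E. coli-expressed N-His c-Kit D816V, residues 551-934 lacking kinase insert 694-753. Reaction 30 min at room temperature, 10 μM ATP, 5% DMSO; IC50 fitted over 8 three-fold dilutions.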

The test system of assay [1] is BaF3-FL KIT D816V or BaF3-FL KIT V560G/D816V cell line. Briefly: Cell-based assays of c-Kit mutant kinase activity (cell proliferation, ATPlite). The note with it: at least one of the c-kit cell assays of Example 7. In short, it runs like this:
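BaF3 cells dependent on transfected full-length human KIT D816V or V560G/D816V (pCI-Neo, CMV promoter) were seeded at 1×10^4 cells/well and exposed to 8-point 1:3 dilutions from 10 μM top (0.2% DMSO) for three days at 37° C. ATPlite luminescence gave cell number; IC50 from concentration-response.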

Sequence of c-kit mutant D816V (P10721 other isoform, or with tags, fused parts or gaps D816V/del 694-753): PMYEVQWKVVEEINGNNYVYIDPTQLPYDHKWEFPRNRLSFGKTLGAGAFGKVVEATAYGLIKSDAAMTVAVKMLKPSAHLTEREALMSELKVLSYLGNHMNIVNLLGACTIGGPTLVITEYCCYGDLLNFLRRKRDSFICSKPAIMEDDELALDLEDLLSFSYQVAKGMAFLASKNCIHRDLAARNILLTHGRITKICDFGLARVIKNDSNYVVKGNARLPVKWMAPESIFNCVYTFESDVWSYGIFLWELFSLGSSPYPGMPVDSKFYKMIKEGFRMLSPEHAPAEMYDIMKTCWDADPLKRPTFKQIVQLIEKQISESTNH

Regarding `COc1cc(-c2cc3c(N4CCC(c5nc(C)c(-c6cccc(OC(F)(F)F)c6)[nH]5)CC4)ncnc3[nH]2)ccn1` [P-3014, 6-(2-methoxy-4-pyridyl)-4-[4-[4-methyl-5-[3-(trifluoromethoxy)phenyl]-1H-imidazol-2-yl]-1-piperidyl]-7H-pyrrolo[2,3-d]pyrimidine], the IC50 was 0.0001 to 1 µM on c-kit mutant D816V and below 10000 nM in assay [1].

For `COc1ccc(-c2[nH]c(C3CCN(c4ncnc5[nH]c(-c6ccc(C#N)cc6)cc45)CC3)nc2C)cc1` [P-3015, 4-[4-[4-[5-(4-methoxyphenyl)-4-methyl-1H-imidazol-2-yl]-1-piperidyl]-7H-pyrrolo[2,3-d]pyrimidin-6-yl]benzonitrile], the IC50 at c-kit mutant D816V was 0.0001 to 1 µM; in assay [1] it was below 10000 nM.

For the compound `Cc1nc(C2CCN(c3ncnc4[nH]c(-c5ccc(C#N)cc5)cc34)CC2)[nH]c1-c1cccc(F)c1` [P-3016, 4-[4-[4-[5-(3-fluorophenyl)-4-methyl-1H-imidazol-2-yl]-1-piperidyl]-7H-pyrrolo[2,3-d]pyrimidin-6-yl]benzonitrile], the IC50 on c-kit mutant D816V is 0.0001 to 1 µM; in assay [1], below 10000 nM.

Consider `COc1ccc(-c2[nH]c(C3CCN(c4ncnc5[nH]c(-c6ccnc(OC)c6)cc45)CC3)nc2C)cc1` [P-3017, 4-[4-[5-(4-methoxyphenyl)-4-methyl-1H-imidazol-2-yl]-1-piperidyl]-6-(2-methoxy-4-pyridyl)-7H-pyrrolo[2,3-d]pyrimidine], for which the results for the IC50 (on c-kit mutant D816V; in assay [1]) were 0.0001 to 1 µM and below 10000 nM, respectively.

For `COc1ccc(-c2[nH]c(C3CCN(c4ncnc5[nH]c(-c6ccc(C#N)cc6)cc45)CC3)nc2C)cc1F` [P-3018, 4-[4-[4-[5-(3-fluoro-4-methoxy-phenyl)-4-methyl-1H-imidazol-2-yl]-1-piperidyl]-7H-pyrrolo[2,3-d]pyrimidin-6-yl]benzonitrile], the IC50 is 0.0001 to 1 µM against c-kit mutant D816V and below 10000 nM in assay [1].

On to `CCOc1ccc(-c2[nH]c(C3(C)CCN(c4ncnc5[nH]c(-c6ccc(OC)nc6)cc45)CC3)nc2C)cc1` [P-3171, 4-[4-[5-(4-ethoxyphenyl)-4-methyl-1H-imidazol-2-yl]-4-methyl-1-piperidyl]-6-(6-methoxy-3-pyridyl)-7H-pyrrolo[2,3-d]pyrimidine], for which the IC50 is 0.0001 to 1 µM against c-kit mutant D816V and below 10000 nM in assay [1].

In the case of `COc1ccc(-c2[nH]c(C3(C)CCN(c4ncnc5[nH]c(-c6ccc(C#N)cc6)cc45)CC3)nc2C)cn1` [P-3172, 4-[4-[4-[5-(6-methoxy-3-pyridyl)-4-methyl-1H-imidazol-2-yl]-4-methyl-1-piperidyl]-7H-pyrrolo[2,3-d]pyrimidin-6-yl]benzonitrile], the IC50 against c-kit mutant D816V was 0.0001 to 1 µM; in assay [1] it was below 10000 nM.

As to `COc1ncc(-c2[nH]c(C3CCN(c4ncnc5[nH]c(-c6ccc(C#N)cc6)cc45)CC3)nc2C)cc1F` [P-3173, 4-[4-[4-[5-(5-fluoro-6-methoxy-3-pyridyl)-4-methyl-1H-imidazol-2-yl]-1-piperidyl]-7H-pyrrolo[2,3-d]pyrimidin-6-yl]benzonitrile], the IC50 on c-kit mutant D816V was 0.0001 to 1 µM; in assay [1] it was below 10000 nM.

Regarding `Cc1nc(C2(C)CCN(c3ncnc4[nH]c(-c5cnn(C(F)F)c5)cc34)CC2)[nH]c1-c1ccc(Cl)cc1` [P-3175, 4-[4-[5-(4-chlorophenyl)-4-methyl-1H-imidazol-2-yl]-4-methyl-1-piperidyl]-6-[1-(difluoromethyl)pyrazol-4-yl]-7H-pyrrolo[2,3-d]pyrimidine], the IC50 against c-kit mutant D816V was 0.0001 to 1 µM; in assay [1] it was below 10000 nM.

Turning to `COc1ccc(-c2cc3c(N4CCC(C)(c5nc(C)c(-c6ccc(Cl)cc6)[nH]5)CC4)ncnc3[nH]2)cn1` [P-3176, 4-[4-[5-(4-chlorophenyl)-4-methyl-1H-imidazol-2-yl]-4-methyl-1-piperidyl]-6-(6-methoxy-3-pyridyl)-7H-pyrrolo[2,3-d]pyrimidine], the IC50 against c-kit mutant D816V is 0.0001 to 1 µM; in assay [1], below 10000 nM.

For `Cc1nc(C2(C)CCN(c3ncnc4[nH]c(-c5ccc(C#N)cc5)cc34)CC2)[nH]c1-c1ccc(C(F)(F)F)cc1` [P-3177, 4-[4-[4-methyl-4-[4-methyl-5-[4-(trifluoromethyl)phenyl]-1H-imidazol-2-yl]-1-piperidyl]-7H-pyrrolo[2,3-d]pyrimidin-6-yl]benzonitrile], the IC50 on c-kit mutant D816V is 0.0001 to 1 µM; in assay [1], below 10000 nM.

Turning to `COc1ccc(-c2cc3c(N4CCC(C)(c5nc(C)c(-c6ccc(C(F)(F)F)cc6)[nH]5)CC4)ncnc3[nH]2)cn1` [P-3178, 6-(6-methoxy-3-pyridyl)-4-[4-methyl-4-[4-methyl-5-[4-(trifluoromethyl)phenyl]-1H-imidazol-2-yl]-1-piperidyl]-7H-pyrrolo[2,3-d]pyrimidine], the values for the IC50 (against c-kit mutant D816V; in assay [1]) were 0.0001 to 1 µM and below 10000 nM, respectively.

In the case of `Cc1nc(C2(C)CCN(c3ncnc4[nH]c(-c5cnn(C(F)F)c5)cc34)CC2)[nH]c1-c1ccc(C(F)(F)F)cc1` [P-3179, 6-[1-(difluoromethyl)pyrazol-4-yl]-4-[4-methyl-4-[4-methyl-5-[4-(trifluoromethyl)phenyl]-1H-imidazol-2-yl]-1-piperidyl]-7H-pyrrolo[2,3-d]pyrimidine], the IC50 was 0.0001 to 1 µM on c-kit mutant D816V and below 10000 nM in assay [1].

With `Cc1nc(C2(C)CCN(c3ncnc4[nH]c(-c5ccc(C#N)cc5)cc34)CC2)[nH]c1-c1ccc(Cl)cc1` [P-3180, 4-[4-[4-[5-(4-chlorophenyl)-4-methyl-1H-imidazol-2-yl]-4-methyl-1-piperidyl]-7H-pyrrolo[2,3-d]pyrimidin-6-yl]benzonitrile], the IC50 at c-kit mutant D816V was 0.0001 to 1 µM; in assay [1], below 10000 nM.

Regarding `COc1ncc(-c2[nH]c(C3(C)CCN(c4ncnc5[nH]c(-c6ccc(C#N)cc6)cc45)CC3)nc2C)cc1F` [P-3181, 4-[4-[4-[5-(5-fluoro-6-methoxy-3-pyridyl)-4-methyl-1H-imidazol-2-yl]-4-methyl-1-piperidyl]-7H-pyrrolo[2,3-d]pyrimidin-6-yl]benzonitrile], the IC50 is 0.0001 to 1 µM at c-kit mutant D816V and below 10000 nM in assay [1].

In the case of `COc1ccc(-c2[nH]c(C3(C)CCN(c4ncnc5[nH]c(-c6cnn(C(F)F)c6)cc45)CC3)nc2C)cn1` [P-3182, 6-[1-(difluoromethyl)pyrazol-4-yl]-4-[4-[5-(6-methoxy-3-pyridyl)-4-methyl-1H-imidazol-2-yl]-4-methyl-1-piperidyl]-7H-pyrrolo[2,3-d]pyrimidine], the IC50 against c-kit mutant D816V is 0.0001 to 1 µM; in assay [1] it was below 10000 nM.

Take `COc1ccc(-c2[nH]c(C3(C)CCN(c4ncnc5[nH]c(C)cc45)CC3)nc2C)cc1F` [P-3183, 4-[4-[5-(3-fluoro-4-methoxy-phenyl)-4-methyl-1H-imidazol-2-yl]-4-methyl-1-piperidyl]-6-methyl-7H-pyrrolo[2,3-d]pyrimidine]: the IC50 is 0.0001 to 1 µM at c-kit mutant D816V and below 10000 nM in assay [1].

Consider `Cc1cc2c(N3CCC(C)(c4nc(C)c(-c5ccc(C(F)F)cc5)[nH]4)CC3)ncnc2[nH]1` [P-3184, 4-[4-[5-[4-(difluoromethyl)phenyl]-4-methyl-1H-imidazol-2-yl]-4-methyl-1-piperidyl]-6-methyl-7H-pyrrolo[2,3-d]pyrimidine], for which the IC50 at c-kit mutant D816V was 0.0001 to 1 µM; in assay [1], below 10000 nM.

As for `COc1ncc(-c2nc(C3(C)CCN(c4ncnc5[nH]c(C)cc45)CC3)[nH]c2C)cc1F` [P-3185, 4-[4-[4-(5-fluoro-6-methoxy-3-pyridyl)-5-methyl-1H-imidazol-2-yl]-4-methyl-1-piperidyl]-6-methyl-7H-pyrrolo[2,3-d]pyrimidine], the figures for the IC50 (against c-kit mutant D816V; in assay [1]) were 0.0001 to 1 µM and below 10000 nM, respectively.

Turning to `COc1ccc(-c2nc(C3(C)CCN(c4ncnc5[nH]c(C)cc45)CC3)[nH]c2C)cn1` [P-3186, 4-[4-[4-(6-methoxy-3-pyridyl)-5-methyl-1H-imidazol-2-yl]-4-methyl-1-piperidyl]-6-methyl-7H-pyrrolo[2,3-d]pyrimidine], the values for the IC50 (on c-kit mutant D816V; in assay [1]) were 0.0001 to 1 µM and below 10000 nM, respectively.

`COc1ccc(-c2[nH]c(C3(C)CCN(c4ncnc5[nH]c(-c6cnn(C(F)F)c6)cc45)CC3)nc2C)cc1F` [P-3187, 6-[1-(difluoromethyl)pyrazol-4-yl]-4-[4-[5-(3-fluoro-4-methoxy-phenyl)-4-methyl-1H-imidazol-2-yl]-4-methyl-1-piperidyl]-7H-pyrrolo[2,3-d]pyrimidine]: the IC50 is 0.0001 to 1 µM against c-kit mutant D816V and below 10000 nM in assay [1].

Turning to `COc1ccc(-c2cc3c(N4CCC(C)(c5nc(C)c(-c6ccc(OC)c(F)c6)[nH]5)CC4)ncnc3[nH]2)cn1` [P-3188, 4-[4-[5-(3-fluoro-4-methoxy-phenyl)-4-methyl-1H-imidazol-2-yl]-4-methyl-1-piperidyl]-6-(6-methoxy-3-pyridyl)-7H-pyrrolo[2,3-d]pyrimidine], the IC50 was 0.0001 to 1 µM against c-kit mutant D816V and below 10000 nM in assay [1].

`Cc1nc(C2(C)CCN(c3ncnc4[nH]c(-c5cnn(C(F)F)c5)cc34)CC2)[nH]c1-c1ccc(C(F)F)cc1` [P-3189, 4-[4-[5-[4-(difluoromethyl)phenyl]-4-methyl-1H-imidazol-2-yl]-4-methyl-1-piperidyl]-6-[1-(difluoromethyl)pyrazol-4-yl]-7H-pyrrolo[2,3-d]pyrimidine]: the IC50 is 0.0001 to 1 µM against c-kit mutant D816V and below 10000 nM in assay [1].

Regarding `COc1ccc(-c2cc3c(N4CCC(C)(c5nc(C)c(-c6ccc(C(F)F)cc6)[nH]5)CC4)ncnc3[nH]2)cn1` [P-3190, 4-[4-[5-[4-(difluoromethyl)phenyl]-4-methyl-1H-imidazol-2-yl]-4-methyl-1-piperidyl]-6-(6-methoxy-3-pyridyl)-7H-pyrrolo[2,3-d]pyrimidine], the results for the IC50 (at c-kit mutant D816V; in assay [1]) were 0.0001 to 1 µM and below 10000 nM, respectively.
